# Reference: ChEMBL document CHEMBL2440080, “Synthesis and biological evaluation of novel acylhydrazone derivatives as potential antitumor agents” (Bioorg Med Chem, 2013)
# Experiments:
# UO-31 = assay: Cytotoxicity against human UO31 cells after 48 hrs by sulforhodamine B assay; assay type: functional; conditions: UO-31, 48 h
# SNB-19 = assay: Cytotoxicity against human SNB19 cells after 48 hrs by sulforhodamine B assay; assay type: functional; conditions: SNB-19, 48 h
# UACC-257 = assay: Cytotoxicity against human UACC257 cells after 48 hrs by sulforhodamine B assay; assay type: functional; conditions: UACC-257, 48 h
# DU-145 = assay: Cytotoxicity against human DU145 cells after 48 hrs by sulforhodamine B assay; assay type: functional; conditions: DU-145, 48 h
# OVCAR-8 = assay: Cytotoxicity against human OVCAR8 cells after 48 hrs by sulforhodamine B assay; assay type: functional; conditions: OVCAR-8, 48 h
# ACHN = assay: Cytotoxicity against human ACHN cells after 48 hrs by sulforhodamine B assay; assay type: functional
# NCI-H460 = assay: Cytotoxicity against human NCI-H460 cells after 48 hrs by sulforhodamine B assay; assay type: functional; conditions: NCI-H460, 48 h
# HOP-62 = assay: Cytotoxicity against human HOP62 cells after 48 hrs by sulforhodamine B assay; assay type: functional; conditions: HOP-62, 48 h
# 786-0 = assay: Cytotoxicity against human 786-0 cells after 48 hrs by sulforhodamine B assay; assay type: functional; conditions: 786-0, 48 h
# M14 = assay: Cytotoxicity against human M14 cells after 48 hrs by sulforhodamine B assay; assay type: functional; conditions: M14, 48 h
# A498 = assay: Cytotoxicity against human A498 cells after 48 hrs by sulforhodamine B assay; assay type: functional; conditions: A498, 48 h
# CAKI-1 = assay: Cytotoxicity against human CAKI-1 cells after 48 hrs by sulforhodamine B assay; assay type: functional; conditions: CAKI-1, 48 h
# HCC 2998 = assay: Cytotoxicity against human HCC2998 cells after 48 hrs by sulforhodamine B assay; assay type: functional; conditions: HCC 2998, 48 h
# NCI/ADR-RES = assay: Cytotoxicity against human NCI/ADR-RES cells after 48 hrs by sulforhodamine B assay; assay type: functional
# IGROV-1 = assay: Cytotoxicity against human IGROV1 cells after 48 hrs by sulforhodamine B assay; assay type: functional; conditions: IGROV-1, 48 h
# MOLT-4 = assay: Cytotoxicity against human MOLT4 cells after 48 hrs by sulforhodamine B assay; assay type: functional; conditions: MOLT-4, 48 h
# SF-295 = assay: Cytotoxicity against human SF295 cells after 48 hrs by sulforhodamine B assay; assay type: functional; conditions: SF-295, 48 h
# NCI-H23 = assay: Cytotoxicity against human NCI-H23 cells after 48 hrs by sulforhodamine B assay; assay type: functional; conditions: NCI-H23, 48 h
# A549 = assay: Cytotoxicity against human A549/ATCC cells after 48 hrs by sulforhodamine B assay; assay type: functional; conditions: A549, 48 h
# CCRF-CEM = assay: Cytotoxicity against human CCRF-CEM cells after 48 hrs by sulforhodamine B assay; assay type: functional
# NCI-H226 = assay: Cytotoxicity against human NCI-H226 cells after 48 hrs by sulforhodamine B assay; assay type: functional; conditions: NCI-H226, 48 h
# HT-29 = assay: Cytotoxicity against human HT-29 cells after 48 hrs by sulforhodamine B assay; assay type: functional; conditions: HT-29, 48 h
# RXF 393 = assay: Cytotoxicity against human RXF393 cells after 48 hrs by sulforhodamine B assay; assay type: functional; conditions: RXF 393, 48 h
# UACC-62 = assay: Cytotoxicity against human UACC62 cells after 48 hrs by sulforhodamine B assay; assay type: functional; conditions: UACC-62, 48 h
# HL-60(TB) = assay: Cytotoxicity against human HL-60(TB) cells after 48 hrs by sulforhodamine B assay; assay type: functional; conditions: HL-60, 48 h
# MDA-MB-231 = assay: Cytotoxicity against human MDA-MB-231 cells after 48 hrs by sulforhodamine B assay; assay type: functional; conditions: MDA-MB-231, 48 h
# LOX IMVI = assay: Cytotoxicity against human LOXIMVI cells after 48 hrs by sulforhodamine B assay; assay type: functional
# NCI-H522 = assay: Cytotoxicity against human NCI-H522 cells after 48 hrs by sulforhodamine B assay; assay type: functional; conditions: NCI-H522, 48 h
# SK-MEL-2 = assay: Cytotoxicity against human SK-MEL-2 cells after 48 hrs by sulforhodamine B assay; assay type: functional; conditions: SK-MEL-2, 48 h
# KM12 = assay: Cytotoxicity against human KM12 cells after 48 hrs by sulforhodamine B assay; assay type: functional; conditions: KM12, 48 h
# OVCAR-3 = assay: Cytotoxicity against human OVCAR3 cells after 48 hrs by sulforhodamine B assay; assay type: functional; conditions: OVCAR-3, 48 h
# COLO 205 = assay: Cytotoxicity against human COLO205 cells after 48 hrs by sulforhodamine B assay; assay type: functional; conditions: COLO 205, 48 h
# MDA-MB-435 = assay: Cytotoxicity against human MDA-MB-435 cells after 48 hrs by sulforhodamine B assay; assay type: functional; conditions: MDA-MB-435, 48 h
# SK-OV-3 = assay: Cytotoxicity against human SKOV3 cells after 48 hrs by sulforhodamine B assay; assay type: functional; conditions: SK-OV-3, 48 h
# SR = assay: Cytotoxicity against human SR cells after 48 hrs by sulforhodamine B assay; assay type: functional
# HCT-116 = assay: Cytotoxicity against human HCT116 cells after 48 hrs by sulforhodamine B assay; assay type: functional; conditions: HCT-116, 48 h
# [1] = Cytotoxicity against human EKVX cells after 48 hrs by sulforhodamine B assay; assay type: functional
# OVCAR-4 = assay: Cytotoxicity against human OVCAR4 cells after 48 hrs by sulforhodamine B assay; assay type: functional; conditions: OVCAR-4, 48 h
# TK-10 = assay: Cytotoxicity against human TK10 cells after 48 hrs by sulforhodamine B assay; assay type: functional; conditions: TK-10, 48 h
# K562 = assay: Cytotoxicity against human K562 cells after 48 hrs by sulforhodamine B assay; assay type: functional; conditions: K562, 48 h
# OVCAR-5 = assay: Cytotoxicity against human OVCAR5 cells after 48 hrs by sulforhodamine B assay; assay type: functional; conditions: OVCAR-5, 48 h
# PC-3 = assay: Cytotoxicity against human PC3 cells after 48 hrs by sulforhodamine B assay; assay type: functional; conditions: PC-3, 48 h
# U-251 = assay: Cytotoxicity against human U251 cells after 48 hrs by sulforhodamine B assay; assay type: functional; conditions: U-251, 48 h
# MDA-MB-468 = assay: Cytotoxicity against human MDA-MB-468 cells after 48 hrs by sulforhodamine B assay; assay type: functional; conditions: MDA-MB-468, 48 h
# SN12C = assay: Cytotoxicity against human SN12C cells after 48 hrs by sulforhodamine B assay; assay type: functional
# SF-539 = assay: Cytotoxicity against human SF539 cells after 48 hrs by sulforhodamine B assay; assay type: functional; conditions: SF-539, 48 h
# SNB-75 = assay: Cytotoxicity against human SNB75 cells after 48 hrs by sulforhodamine B assay; assay type: functional; conditions: SNB-75, 48 h
# NCI-H322M = assay: Cytotoxicity against human NCI-H322M cells after 48 hrs by sulforhodamine B assay; assay type: functional
# MCF7 = assay: Cytotoxicity against human MCF7 cells after 48 hrs by sulforhodamine B assay; assay type: functional; conditions: MCF7, 48 h
# SF-268 = assay: Cytotoxicity against human SF268 cells after 48 hrs by sulforhodamine B assay; assay type: functional; conditions: SF-268, 48 h
# HCT-15 = assay: Cytotoxicity against human HCT15 cells after 48 hrs by sulforhodamine B assay; assay type: functional; conditions: HCT-15, 48 h
# Malme-3M = assay: Cytotoxicity against human MALME-3M cells after 48 hrs by sulforhodamine B assay; assay type: functional
# HOP-92 = assay: Cytotoxicity against human HOP92 cells after 48 hrs by sulforhodamine B assay; assay type: functional; conditions: HOP-92, 48 h
# SK-MEL-5 = assay: Cytotoxicity against human SK-MEL-5 cells after 48 hrs by sulforhodamine B assay; assay type: functional; conditions: SK-MEL-5, 48 h
# BT-549 = assay: Cytotoxicity against human BT549 cells after 48 hrs by sulforhodamine B assay; assay type: functional; conditions: BT-549, 48 h
# [2] = Cytotoxicity against human Hs 578T cells after 48 hrs by sulforhodamine B assay; assay type: functional
# SK-MEL-28 = assay: Cytotoxicity against human SK-MEL-28 cells after 48 hrs by sulforhodamine B assay; assay type: functional; conditions: SK-MEL-28, 48 h
# T47D = assay: Cytotoxicity against human T47D cells after 48 hrs by sulforhodamine B assay; assay type: functional
# SW-620 = assay: Cytotoxicity against human SW620 cells after 48 hrs by sulforhodamine B assay; assay type: functional; conditions: SW-620, 48 h
# RPMI-8226 = assay: Cytotoxicity against human RPMI8226 cells after 48 hrs by sulforhodamine B assay; assay type: functional; conditions: RPMI-8226, 48 h
# Mus musculus = assay: Toxicity in athymic nude mouse assessed as survival at 400 mg/kg, ip measured after 2 weeks; assay type: organism-based; set-up: dose 400 mg/kg, route intraperitoneal; conditions: in vivo, 336 h
smiles,measurement,setting,value
CCN(CC)c1ccc(/C=N/NC(=O)Cc2ccc(Nc3ccnc(C(F)(F)F)c3)cc2)c(O)c1,GI50,UO-31,389 nM
same,GI50,SNB-19,525 nM
same,GI50,UACC-257,1910 nM
same,GI50,DU-145,813 nM
same,GI50,OVCAR-8,501 nM
same,GI50,ACHN,398 nM
same,GI50,NCI-H460,316 nM
same,GI50,HOP-62,501 nM
same,GI50,786-0,437 nM
same,GI50,M14,525 nM
same,GI50,A498,5010 nM
same,GI50,CAKI-1,398 nM
same,GI50,HCC 2998,646 nM
same,GI50,NCI/ADR-RES,537 nM
same,GI50,IGROV-1,501 nM
same,GI50,MOLT-4,501 nM
same,GI50,SF-295,501 nM
same,GI50,NCI-H23,1050 nM
same,GI50,A549,832 nM
same,GI50,CCRF-CEM,316 nM
same,GI50,NCI-H226,676 nM
same,GI50,HT-29,676 nM
same,GI50,RXF 393,1000 nM
same,GI50,UACC-62,398 nM
same,GI50,HL-60(TB),339 nM
same,GI50,MDA-MB-231,1120 nM
same,GI50,LOX IMVI,398 nM
same,GI50,NCI-H522,575 nM
same,GI50,SK-MEL-2,4900 nM
same,GI50,KM12,676 nM
same,GI50,OVCAR-3,794 nM
same,GI50,COLO 205,437 nM
same,GI50,MDA-MB-435,912 nM
same,GI50,SK-OV-3,363 nM
same,GI50,SR,251 nM
same,GI50,HCT-116,398 nM
same,GI50,[1],398 nM
same,GI50,OVCAR-4,513 nM
same,GI50,TK-10,417 nM
same,GI50,K562,550 nM
same,GI50,OVCAR-5,776 nM
same,GI50,PC-3,2000 nM
same,GI50,U-251,501 nM
same,GI50,MDA-MB-468,389 nM
same,GI50,SN12C,977 nM
same,GI50,SF-539,479 nM
same,GI50,SNB-75,2510 nM
same,GI50,NCI-H322M,398 nM
same,GI50,MCF7,407 nM
same,GI50,SF-268,537 nM
same,GI50,HCT-15,407 nM
same,GI50,Malme-3M,1000 nM
same,GI50,HOP-92,1740 nM
same,GI50,SK-MEL-5,309 nM
same,GI50,BT-549,1350 nM
same,GI50,[2],2190 nM
same,GI50,SK-MEL-28,813 nM
same,GI50,T47D,631 nM
same,GI50,SW-620,813 nM
CCN(CC)c1ccc(/C=N/NC(=O)c2ccccc2Nc2ccnc(C(F)(F)F)c2)c(O)c1,GI50,UO-31,141 nM
same,GI50,SNB-19,479 nM
same,GI50,UACC-257,324 nM
same,GI50,DU-145,126 nM
same,GI50,OVCAR-8,209 nM
same,GI50,ACHN,79.4 nM
same,GI50,NCI-H460,67.6 nM
same,GI50,HOP-62,105 nM
same,GI50,786-0,182 nM
same,GI50,M14,129 nM
same,GI50,A498,178 nM
same,GI50,CAKI-1,63.1 nM
same,GI50,HCC 2998,191 nM
same,GI50,NCI/ADR-RES,263 nM
same,GI50,IGROV-1,79.4 nM
same,GI50,MOLT-4,79.4 nM
same,GI50,SF-295,251 nM
same,GI50,NCI-H23,513 nM
same,GI50,A549,309 nM
same,GI50,CCRF-CEM,31.6 nM
same,GI50,NCI-H226,151 nM
same,GI50,HT-29,347 nM
same,GI50,RXF 393,251 nM
same,GI50,UACC-62,214 nM
same,GI50,HL-60(TB),251 nM
same,GI50,MDA-MB-231,195 nM
same,GI50,LOX IMVI,79.4 nM
same,GI50,NCI-H522,263 nM
same,GI50,SK-MEL-2,501 nM
same,GI50,KM12,251 nM
same,GI50,OVCAR-3,126 nM
same,GI50,RPMI-8226,41.7 nM
same,GI50,COLO 205,174 nM
same,GI50,MDA-MB-435,457 nM
same,GI50,SK-OV-3,174 nM
same,GI50,SR,138 nM
same,GI50,HCT-116,100 nM
same,GI50,[1],158 nM
same,GI50,OVCAR-4,87.1 nM
same,GI50,TK-10,166 nM
same,GI50,K562,380 nM
same,GI50,OVCAR-5,200 nM
same,GI50,PC-3,263 nM
same,GI50,U-251,126 nM
same,GI50,MDA-MB-468,151 nM
same,GI50,SN12C,240 nM
same,GI50,SF-539,245 nM
same,GI50,SNB-75,209 nM
same,GI50,NCI-H322M,100 nM
same,GI50,MCF7,288 nM
same,GI50,SF-268,69.2 nM
same,GI50,HCT-15,50.1 nM
same,GI50,Malme-3M,339 nM
same,GI50,HOP-92,251 nM
same,GI50,SK-MEL-5,158 nM
same,Activity,Mus musculus,Non-toxic
same,GI50,BT-549,347 nM
same,GI50,[2],871 nM
same,GI50,SK-MEL-28,240 nM
same,GI50,T47D,550 nM
same,GI50,SW-620,363 nM
